Molecular target: T1, human FXR (Homo sapiens, UniProt Q96RI1)
T1 construct: expressed in transfected cells; host or cells: HEK293 cells stably carrying a 5xGal4-response-element firefly luciferase reporter, transiently transfected with pcDNA3.1-Gal4-FXR
T1 sequence (Q96RI1 262-486 limits assumed): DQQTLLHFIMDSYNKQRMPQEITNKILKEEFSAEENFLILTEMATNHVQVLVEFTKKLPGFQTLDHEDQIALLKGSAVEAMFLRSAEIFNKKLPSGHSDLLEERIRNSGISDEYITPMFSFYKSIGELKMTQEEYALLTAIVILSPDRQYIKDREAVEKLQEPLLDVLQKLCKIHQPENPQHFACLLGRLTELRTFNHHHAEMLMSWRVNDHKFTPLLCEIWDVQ
Assay: transient human FXR/Gal4-luciferase reporter assay
Assay type: cell-based
Conditions: Gal4-hFXR LBD fusion, luciferase reporter in HEK293 cells; response relative to 8 μM GW-4064
Method: A Gal4-hFXR fusion construct reporter system was used as the primary assay to characterize compound activity. A construct including 5 copies of the Gal4 promoter response element upstream of a firefly luciferase reporter cDNA was stably expressed in HEK293 cells. This reporter cell line was maintained in Dulbecco's Modified Eagle's medium (DMEM; Gibco) supplemented with 1% penicillin-streptomycin (P/S) solution, 500 μg/mL Zeocin and 10% charcoal/dextran-treated fetal bovine serum (cs-FBS) at 37° C. in a humidified 5% CO2 atmosphere. […] The day prior to transfection, the reporter cells in culture are detached from the plate with trypsin and plated into a T75 flask at a sufficient density to achieve approximately 90% confluence the next morning. […] The mixture is further diluted with 10 mL of a solution comprised of DMEM, 10% cs-FBS, and 1% P/S immediately prior to transferring to the cells. The maintenance culture media is aspirated from the cells and the final transfection mixture is added before the cells are incubated overnight at 37° C. in a humidified 5% CO2 atmosphere. This protocol can be scaled up, and the transiently transfected cells can be cryopreserved in an assay-ready format. For compound testing, 100 nL of the compounds (serial dilutions in DMSO) are dispensed with an Echo acoustic dispenser (Labcyte) into the wells of a Corning/Costar clear bottom 384-well white plate. The transfected cells are harvested, counted, and diluted such that 10-25,000 cells in 25 μL are plated into each well of the 384-well compound assay plate. The compound-treated cells are incubated overnight at 37° C. in a humidified 5% CO2 atmosphere. The next morning 25 μL of Steady-Glo (Promega) are added to each well of the plate, the mixture is incubated for 15 min. with shaking, and luminescence is measured on an Envision (Perkin Elmer) plate reader.

EC50 [nM] | SMILES
166 | O=C(C1CCCCC1)N(CC12CCC(c3nc(C4CC4)no3)(CC1)CC2)c1cccc(-c2nc(C(F)F)co2)c1 [Example 37, N-((4-(3-cyclopropyl-1,2,4-oxadiazol-5-yl)bicyclo[2.2.2]octan-1-yl)methyl)-N-(3-(4-(difluoromethyl)oxazol-2-yl)phenyl)cyclohexanecarboxamide]
4390 | CC(C)(C)OC(=O)N1CCC(C(=O)N(CC23CCC(c4nc(C5CC5)no4)(CC2)CC3)c2cccc(-c3nc(C(F)F)co3)c2)CC1 [Example 38, tert-butyl 4-(((4-(3-cyclopropyl-1,2,4-oxadiazol-5-yl)bicyclo[2.2.2]octan-1-yl)methyl)(3-(4-(difluoromethyl)oxazol-2-yl)phenyl)carbamoyl) piperidine-1-carboxylate]
130 | CCOc1nnc(-c2cccc(N(CC34CCC(c5nc(C6CC6)no5)(CC3)CC4)C(=O)C3CCC(F)(F)CC3)c2)o1 [Example 39, N-((4-(3-cyclopropyl-1,2,4-oxadiazol-5-yl)bicyclo[2.2.2]octan-1-yl)methyl)-N-(3-(5-ethoxy-1,3,4-oxadiazol-2-yl)phenyl)-4,4-difluorocyclohexane-1-carboxamide]
78 | O=C(C1CCOCC1)N(CC12CCC(c3nc(C4CC4)no3)(CC1)CC2)c1cccc(-c2cc(C3CC3)on2)c1 [Example 40, N-((4-(3-cyclopropyl-1,2,4-oxadiazol-5-yl)bicyclo[2.2.2]octan-1-yl)methyl)-N-(3-(5-cyclopropylisoxazol-3-yl)phenyl)tetrahydro-2h-pyran-4-carboxamide]
229 | O=C(C1CCOCC1)N(CC12CCC(c3nc(CC4CC4)no3)(CC1)CC2)c1cccc(-c2nc(CC3CC3)no2)c1 [Example 41, N-((4-(3-(cyclopropylmethyl)-1,2,4-oxadiazol-5-yl)bicyclo[2.2.2]octan-1-yl)methyl)-N-(3-(3-(cyclopropylmethyl)-1,2,4-oxadiazol-5-yl)phenyl)tetrahydro-2H-pyran-4-carboxamide]
536 | O=C(C1CCC(F)(F)CC1)N(CC12CCC(c3nc(CC4CC4)no3)(CC1)CC2)c1cccc(-c2nc(CC3CC3)no2)c1 [Example 42, N-((4-(3-(cyclopropylmethyl)-1,2,4-oxadiazol-5-yl)bicyclo[2.2.2]octan-1-yl)methyl)-N-(3-(3-(cyclopropylmethyl)-1,2,4-oxadiazol-5-yl)phenyl)-4,4-difluorocyclohexane-1-carboxamide]
379 | O=C(C1CCC(F)(F)CC1)N(CC12CCC(c3nc(C4CC4)no3)(CC1)CC2)c1cccc(-c2nc(CC3CC3)no2)c1 [Example 43, N-((4-(3-cyclopropyl-1,2,4-oxadiazol-5-yl)bicyclo[2.2.2]octan-1-yl)methyl)-N-(3-(3-(cyclopropylmethyl)-1,2,4-oxadiazol-5-yl)phenyl)-4,4-difluorocyclohexane-1-carboxamide]
118 | O=C(C1CCOCC1)N(CC12CCC(c3nc(C4CC4)no3)(CC1)CC2)c1cccc(-c2nc(CC3CC3)no2)c1 [Example 44, N-((4-(3-cyclopropyl-1,2,4-oxadiazol-5-yl)bicyclo[2.2.2]octan-1-yl)methyl)-N-(3-(3-(cyclopropylmethyl)-1,2,4-oxadiazol-5-yl)phenyl)tetrahydro-2H-pyran-4-carboxamide]
278 | O=C(C1CCOCC1)N(CC12CCC(c3nc(CC4CC4)no3)(CC1)CC2)c1cccc(-c2nc(C3CC3)no2)c1 [Example 45, N-(3-(3-cyclopropyl-1,2,4-oxadiazol-5-yl)phenyl)-N-((4-(3-(cyclopropylmethyl)-1,2,4-oxadiazol-5-yl)bicyclo[2.2.2]octan-1-yl)methyl)tetrahydro-2H-pyran-4-carboxamide]
633 | O=C(C1CCC(F)(F)CC1)N(CC12CCC(c3nc(CC4CC4)no3)(CC1)CC2)c1cccc(-c2nc(C3CC3)no2)c1 [Example 46, N-(3-(3-cyclopropyl-1,2,4-oxadiazol-5-yl)phenyl)-N-((4-(3-(cyclopropylmethyl)-1,2,4-oxadiazol-5-yl)bicyclo[2.2.2]octan-1-yl)methyl)-4,4-difluorocyclohexane-1-carboxamide]

More lines, now with the values behind:

SMILES | EC50 [nM]
O=C(C1CCOCC1)N(CC12CCC(c3nc(C4CC4)no3)(CC1)CC2)c1cccc(-c2cnc(C3CC3)o2)c1 [Example 23, N-((4-(3-cyclopropyl-1,2,4-oxadiazol-5-yl)bicyclo[2.2.2]octan-1-yl)methyl)-N-(3-(2-cyclopropyloxazol-5-yl)phenyl)tetrahydro-2H-pyran-4-carboxamide] | 74
CN1CCC(C(=O)N(CC23CCC(c4nc(C5CC5)no4)(CC2)CC3)c2cccc(-c3cnc(C4CC4)o3)c2)CC1 [Example 24, N-((4-(3-cyclopropyl-1,2,4-oxadiazol-5-yl)bicyclo[2.2.2]octan-1-yl)methyl)-N-(3-(2-cyclopropyloxazol-5-yl)phenyl)-1-methylpiperidine-4-carboxamide] | 4800
O=C(C1CCC(F)(F)CC1)N(CC12CCC(c3nc(C4CC4)no3)(CC1)CC2)c1cccc(-c2cnc(C3CC3)o2)c1 [Example 26, N-((4-(3-cyclopropyl-1,2,4-oxadiazol-5-yl)bicyclo[2.2.2]octan-1-yl)methyl)-N-(3-(2-cyclopropyloxazol-5-yl)phenyl)-4,4-difluorocyclohexane-1-carboxamide] | 355
CCOc1cc(-c2cccc(N(CC34CCC(c5nc(C6CC6)no5)(CC3)CC4)C(=O)C3CCCCC3)c2)no1 [Example 27, N-((4-(3-cyclopropyl-1,2,4-oxadiazol-5-yl)bicyclo[2.2.2]octan-1-yl)methyl)-N-(3-(5-ethoxyisoxazol-3-yl)phenyl)cyclohexanecarboxamide] | 75
CCCc1ncc(-c2cccc(N(CC34CCC(c5nc(C6CC6)no5)(CC3)CC4)C(=O)C3CCCCC3)c2)o1 [Example 28, N-((4-(3-cyclopropyl-1,2,4-oxadiazol-5-yl)bicyclo[2.2.2]octan-1-yl)methyl)-N-(3-(2-propyloxazol-5-yl)phenyl)cyclohexanecarboxamide] | 34
CCCc1ncc(-c2cccc(N(CC34CCC(c5nc(C6CC6)no5)(CC3)CC4)C(=O)C3CCOCC3)c2)o1 [Example 29, N-((4-(3-cyclopropyl-1,2,4-oxadiazol-5-yl)bicyclo[2.2.2]octan-1-yl)methyl)-N-(3-(2-propyloxazol-5-yl)phenyl)tetrahydro-2H-pyran-4-carboxamide] | 53
CCOC(=O)c1nc(-c2cccc(N(CC34CCC(c5nc(C6CC6)no5)(CC3)CC4)C(=O)C3CCCCC3)c2)cs1 [Example 31, Ethyl 4-(3-(N-((4-(3-cyclopropyl-1,2,4-oxadiazol-5-yl)bicyclo[2.2.2]octan-1-yl)methyl)cyclohexanecarboxamido)phenyl)thiazole-2-carboxylate] | 1200
CC(C)(O)c1nc(-c2cccc(N(CC34CCC(c5nc(C6CC6)no5)(CC3)CC4)C(=O)C3CCCCC3)c2)cs1 [Example 32, N-((4-(3-cyclopropyl-1,2,4-oxadiazol-5-yl)bicyclo[2.2.2]octan-1-yl)methyl)-N-(3-(2-(2-hydroxypropan-2-yl)thiazol-4-yl)phenyl)cyclohexanecarboxamide] | 320
Cc1noc(C23CCC(CN(C(=O)C4CCCCC4)c4cccc(-c5cnc(C6CCOCC6)o5)c4)(CC2)CC3)n1 [Example 33, N-((4-(3-methyl-1,2,4-oxadiazol-5-yl)bicyclo[2.2.2]octan-1-yl)methyl)-N-(3-(2-(tetrahydro-2H-pyran-4-yl)oxazol-5-yl)phenyl)cyclohexanecarboxamide] | 949
O=C(C1CCCCC1)N(CC12CCC(c3nc(C4CC4)no3)(CC1)CC2)c1cccc(-c2cnc(C3CCOCC3)o2)c1 [Example 34, N-((4-(3-cyclopropyl-1,2,4-oxadiazol-5-yl)bicyclo[2.2.2]octan-1-yl)methyl)-N-(3-(2-(tetrahydro-2H-pyran-4-yl)oxazol-5-yl)phenyl)cyclohexanecarboxamide] | 212
Cc1cnc(C23CCC(CN(C(=O)C4CCCCC4)c4cccc(-c5nc(C6CC6)no5)c4)(CC2)CC3)o1 [Example 35, N-(3-(3-cyclopropyl-1,2,4-oxadiazol-5-yl)phenyl)-N-((4-(5-methyloxazol-2-yl)bicyclo[2.2.2]octan-1-yl)methyl)cyclohexanecarboxamide] | 515
O=C(C1CCOCC1)N(CC12CCC(c3nc(C4CC4)no3)(CC1)CC2)c1cccc(-c2nc(C(F)F)co2)c1 [Example 36, N-((4-(3-cyclopropyl-1,2,4-oxadiazol-5-yl)bicyclo[2.2.2]octan-1-yl)methyl)-N-(3-(4-(difluoromethyl)oxazol-2-yl)phenyl)tetrahydro-2H-pyran-4-carboxamide] | 525

Source: patent US12227496B2 (BRISTOL-MYERS SQUIBB COMPANY, priority 2019, dated 2025)
